Experimental data: ChEMBL document CHEMBL1201862, “PubChem BioAssay data set” (2004)
The source made the active and inactive calls.

Tests used:
[1] = Luminescence Cell-Based Dose Confirmation HTS to Identify Inhibitors of Platelet Dense Granule Release. [Related pubchem assays: 1663 (Primary HTS), 1678 (Summary of Project)]; format: functional
[2] = biological target: Luciferin 4-monooxygenase (Photinus pyralis, UniProt P08659); assay: firefly luciferase enzyme inhibitors, dose response, biochemical, luminescence (AID 1891)
Sequence of Luciferin 4-monooxygenase (P08659 whole entry): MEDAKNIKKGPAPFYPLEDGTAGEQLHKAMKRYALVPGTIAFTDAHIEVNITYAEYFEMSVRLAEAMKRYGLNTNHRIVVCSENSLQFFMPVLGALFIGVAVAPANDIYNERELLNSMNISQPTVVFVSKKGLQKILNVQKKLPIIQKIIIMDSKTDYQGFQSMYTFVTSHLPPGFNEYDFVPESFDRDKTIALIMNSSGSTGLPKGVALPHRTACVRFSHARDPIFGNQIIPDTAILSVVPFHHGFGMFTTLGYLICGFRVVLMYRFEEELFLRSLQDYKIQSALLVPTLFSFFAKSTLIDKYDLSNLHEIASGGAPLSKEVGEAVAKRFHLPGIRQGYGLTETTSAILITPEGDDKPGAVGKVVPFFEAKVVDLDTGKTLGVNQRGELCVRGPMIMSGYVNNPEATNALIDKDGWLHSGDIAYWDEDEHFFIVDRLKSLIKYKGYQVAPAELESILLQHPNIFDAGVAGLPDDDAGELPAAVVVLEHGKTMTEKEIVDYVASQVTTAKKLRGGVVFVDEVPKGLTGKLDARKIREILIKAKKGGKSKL

[3] = cytotoxicity toward NIH3T3 fibroblasts, dose response, counter-screen, cell-based, ATP luminescence, mouse fibroblasts (AID 2010); format: functional;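 further: cells exposed to compound for about 90 hours before reading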
cells [4] = assay: cells
[5] = inhibitors of intracellular T. cruzi replication, confirmation, NIH3T3 host cells, beta-gal luminescence (AID 2044); format: functional, cell-based;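 further: intracellular parasites grown in NIH/3T3 mouse fibroblasts as host cells; luminescent beta-galactosidase reporter signal from transgenic T. cruzi replicating inside host cells; inhibitors lower the luminescence signal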
Leucine aminopeptidase = biological target: T1, Leucine aminopeptidase (Plasmodium falciparum 3D7, UniProt Q8IL11); assay: P. falciparum M17LAP inhibitors, primary screen, biochemical, fluorogenic H-Leu-NHMec substrate, 1536-well (AID 1619); format: functional
T1 sequence (Q8IL11 whole entry): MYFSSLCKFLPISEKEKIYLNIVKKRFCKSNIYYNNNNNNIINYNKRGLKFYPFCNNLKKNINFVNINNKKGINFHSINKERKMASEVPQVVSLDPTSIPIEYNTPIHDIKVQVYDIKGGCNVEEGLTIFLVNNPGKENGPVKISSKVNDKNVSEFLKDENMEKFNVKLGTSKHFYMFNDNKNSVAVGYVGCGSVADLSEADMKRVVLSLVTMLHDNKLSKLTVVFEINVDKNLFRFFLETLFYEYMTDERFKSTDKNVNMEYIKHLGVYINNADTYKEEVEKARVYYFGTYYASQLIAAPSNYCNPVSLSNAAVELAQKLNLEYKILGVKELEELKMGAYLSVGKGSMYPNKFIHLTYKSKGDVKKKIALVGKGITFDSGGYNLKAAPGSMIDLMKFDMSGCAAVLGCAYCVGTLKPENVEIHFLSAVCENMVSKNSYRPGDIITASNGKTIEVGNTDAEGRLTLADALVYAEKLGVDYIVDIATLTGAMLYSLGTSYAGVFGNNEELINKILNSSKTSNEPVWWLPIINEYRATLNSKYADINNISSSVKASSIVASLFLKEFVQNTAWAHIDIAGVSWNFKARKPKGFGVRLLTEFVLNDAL

Large T antigen = Large T antigen (Simian virus 40, UniProt P03070); format: functional, Betapolyomavirus macacae;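 further: Confirmatory-stage PubChem screen for compounds that inhibit SV40 T antigen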
Sequence of Large T antigen (P03070 whole entry): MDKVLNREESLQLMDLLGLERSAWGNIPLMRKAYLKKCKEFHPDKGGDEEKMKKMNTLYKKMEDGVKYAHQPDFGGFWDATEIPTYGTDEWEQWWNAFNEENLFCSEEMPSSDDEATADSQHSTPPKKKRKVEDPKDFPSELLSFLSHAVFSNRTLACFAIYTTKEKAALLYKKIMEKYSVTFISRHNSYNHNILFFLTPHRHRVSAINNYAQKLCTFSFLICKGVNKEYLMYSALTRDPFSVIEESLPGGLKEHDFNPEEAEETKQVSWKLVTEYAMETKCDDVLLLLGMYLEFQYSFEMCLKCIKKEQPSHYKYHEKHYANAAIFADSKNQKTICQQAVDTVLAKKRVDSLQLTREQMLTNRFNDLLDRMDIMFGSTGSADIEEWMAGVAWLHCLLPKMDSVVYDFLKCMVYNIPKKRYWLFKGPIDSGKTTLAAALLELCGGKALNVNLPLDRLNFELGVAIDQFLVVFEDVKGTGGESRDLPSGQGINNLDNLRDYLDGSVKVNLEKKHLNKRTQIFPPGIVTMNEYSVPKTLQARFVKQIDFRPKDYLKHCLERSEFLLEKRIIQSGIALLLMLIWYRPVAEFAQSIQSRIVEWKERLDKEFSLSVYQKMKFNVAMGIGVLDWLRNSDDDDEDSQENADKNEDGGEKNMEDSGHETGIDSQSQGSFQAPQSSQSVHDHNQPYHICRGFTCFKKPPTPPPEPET

[6] = biological target: Eukaryotic translation initiation factor 4E (Mus musculus, UniProt P63073); assay: eIF4E–eIF4G protein interaction inhibitors, dose response, biochemical, TR-FRET (AID 855); format: functional;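 further: potency for disrupting eIF4E binding to eIF4GI seen as loss of FRET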
Sequence of Eukaryotic translation initiation factor 4E (P63073 whole entry): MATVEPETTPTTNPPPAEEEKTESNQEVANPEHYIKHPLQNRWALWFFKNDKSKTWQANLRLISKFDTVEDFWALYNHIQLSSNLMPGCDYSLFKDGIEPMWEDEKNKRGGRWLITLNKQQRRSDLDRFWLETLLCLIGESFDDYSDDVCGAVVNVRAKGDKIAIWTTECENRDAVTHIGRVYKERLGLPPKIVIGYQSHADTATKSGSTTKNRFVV

[7] = growth suppression of PTEN-null colon cells, dose response, cell-based, HCT116 PTEN knockout (AID 1047); format: functional;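 further: HCT116 colon tumor cells with PTEN knocked out; cells exposed to compound for 60 hours before readout; potency for loss of cell viability measured by luminescence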
[8] = growth suppression of beta-catenin-knockout colon cells, dose response, cell-based, HCT116, human colon tumor (AID 1045); format: functional;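 further: HCT116 colon tumor cells with beta catenin knocked out; cells exposed to compound for 60 hours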
[9] = microbe, parasite or virus in culture; format: functional; conditions: Mycobacterium tuberculosis
[10] = biological target: FAD-linked sulfhydryl oxidase ALR (Homo sapiens, UniProt P55789); assay: inhibitors of human ALR sulfhydryl oxidase, dose response, biochemical, H2O2 detection, luminescence, cherry-pick (AID 493248)
Sequence of FAD-linked sulfhydryl oxidase ALR (P55789 whole entry): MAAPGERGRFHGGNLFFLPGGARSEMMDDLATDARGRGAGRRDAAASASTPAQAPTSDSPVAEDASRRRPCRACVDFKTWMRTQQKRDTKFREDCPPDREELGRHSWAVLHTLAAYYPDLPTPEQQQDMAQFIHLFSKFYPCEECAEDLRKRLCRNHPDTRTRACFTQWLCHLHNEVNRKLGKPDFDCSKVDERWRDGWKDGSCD

[11] = biological target: T2, Heat shock factor protein 1 (Mus musculus, UniProt P38532); assay: HSF1 potentiators in luciferase reporter cells, confirmation, cell-based, NIH3T3, luminescence, dose retest (AID 435004); format: functional;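 further: stress induced by proteasome inhibitor MG132 added 30 min after compound; luciferase reporter driven by HSF1 response element in NIH3T3 cells; actives raise luminescence as potentiators of the MG132 stress response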
T2 sequence (P38532 whole entry): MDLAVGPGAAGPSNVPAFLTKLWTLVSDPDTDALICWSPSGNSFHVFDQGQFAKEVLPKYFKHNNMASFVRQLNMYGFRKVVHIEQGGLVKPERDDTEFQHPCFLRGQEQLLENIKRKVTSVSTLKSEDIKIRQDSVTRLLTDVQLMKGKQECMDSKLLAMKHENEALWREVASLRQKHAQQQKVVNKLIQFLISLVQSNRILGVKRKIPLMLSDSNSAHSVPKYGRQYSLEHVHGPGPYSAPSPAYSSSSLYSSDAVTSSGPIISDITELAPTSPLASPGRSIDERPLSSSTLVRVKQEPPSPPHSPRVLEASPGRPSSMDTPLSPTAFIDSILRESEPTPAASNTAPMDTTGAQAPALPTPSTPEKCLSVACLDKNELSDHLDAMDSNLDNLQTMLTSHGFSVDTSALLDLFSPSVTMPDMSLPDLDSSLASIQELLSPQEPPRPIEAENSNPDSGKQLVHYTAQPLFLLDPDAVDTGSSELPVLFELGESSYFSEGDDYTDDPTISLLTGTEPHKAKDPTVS

cells [12] = format: functional
Streptococcus = assay: Group A Streptococcus viability loss, dose response, counter-screen for streptokinase expression inhibitor project, luminescence, BacTiterGlo (AID 1915); format: functional, organism-based;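 further: potency for reduction of bacterial viability or growth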
[13] = THP-1 cell cytotoxicity, dose response, cytotoxicity control for non-replicating M. tuberculosis project (AID 489025); format: functional
[14] = test system: Streptococcus sp. 'group A'; assay: growth inhibition of control SK(-) GAS strain, dose response, counter-screen for streptokinase expression inhibitor project, luminescence, kanamycin, BacTiterGlo, confirmation (AID 1900); format: functional, organism-based
[15] = biological target: T3, Replicative DNA helicase DnaB (Mycobacterium tuberculosis, UniProt P9WMR3); assay: DnaB intein splicing inhibitors, dose response, biochemical, cell-free fluorescence (AID 449749); format: functional
T3 sequence (P9WMR3 whole entry): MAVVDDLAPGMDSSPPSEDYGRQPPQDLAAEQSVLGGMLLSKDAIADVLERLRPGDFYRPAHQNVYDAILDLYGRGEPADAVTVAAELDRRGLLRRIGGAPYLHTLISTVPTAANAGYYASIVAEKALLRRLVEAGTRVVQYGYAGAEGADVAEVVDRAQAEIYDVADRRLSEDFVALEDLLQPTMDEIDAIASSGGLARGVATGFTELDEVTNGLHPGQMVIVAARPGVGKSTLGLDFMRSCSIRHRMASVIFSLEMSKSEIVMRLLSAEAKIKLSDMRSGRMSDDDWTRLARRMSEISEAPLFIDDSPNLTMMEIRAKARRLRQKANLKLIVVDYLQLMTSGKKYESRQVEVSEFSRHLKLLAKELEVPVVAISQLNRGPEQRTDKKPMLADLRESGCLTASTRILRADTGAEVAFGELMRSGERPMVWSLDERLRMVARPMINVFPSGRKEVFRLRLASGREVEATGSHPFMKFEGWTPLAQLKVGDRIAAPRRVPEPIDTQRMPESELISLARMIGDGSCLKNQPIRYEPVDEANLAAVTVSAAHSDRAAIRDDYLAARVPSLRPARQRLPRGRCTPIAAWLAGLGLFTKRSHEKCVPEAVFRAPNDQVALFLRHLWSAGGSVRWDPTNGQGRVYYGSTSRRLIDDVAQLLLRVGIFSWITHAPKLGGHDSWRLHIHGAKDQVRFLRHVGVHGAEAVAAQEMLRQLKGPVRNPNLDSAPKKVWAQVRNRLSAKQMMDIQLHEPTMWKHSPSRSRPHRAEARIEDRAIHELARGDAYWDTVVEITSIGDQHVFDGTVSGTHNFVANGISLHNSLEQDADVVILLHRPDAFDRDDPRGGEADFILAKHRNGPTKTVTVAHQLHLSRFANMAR

Protein RecA = biological target: T4, Protein RecA (Mycobacterium tuberculosis, UniProt P9WHJ3); assay: Fluorescence Cell-Free Homogeneous Dose Retest to Identify Inhibitors of RecA-Intein Splicing Activity. [Related pubchem assays (depositor defined):AID2097, AID2223, AID489010, AID492950]; format: functional
T4 sequence (P9WHJ3 whole entry): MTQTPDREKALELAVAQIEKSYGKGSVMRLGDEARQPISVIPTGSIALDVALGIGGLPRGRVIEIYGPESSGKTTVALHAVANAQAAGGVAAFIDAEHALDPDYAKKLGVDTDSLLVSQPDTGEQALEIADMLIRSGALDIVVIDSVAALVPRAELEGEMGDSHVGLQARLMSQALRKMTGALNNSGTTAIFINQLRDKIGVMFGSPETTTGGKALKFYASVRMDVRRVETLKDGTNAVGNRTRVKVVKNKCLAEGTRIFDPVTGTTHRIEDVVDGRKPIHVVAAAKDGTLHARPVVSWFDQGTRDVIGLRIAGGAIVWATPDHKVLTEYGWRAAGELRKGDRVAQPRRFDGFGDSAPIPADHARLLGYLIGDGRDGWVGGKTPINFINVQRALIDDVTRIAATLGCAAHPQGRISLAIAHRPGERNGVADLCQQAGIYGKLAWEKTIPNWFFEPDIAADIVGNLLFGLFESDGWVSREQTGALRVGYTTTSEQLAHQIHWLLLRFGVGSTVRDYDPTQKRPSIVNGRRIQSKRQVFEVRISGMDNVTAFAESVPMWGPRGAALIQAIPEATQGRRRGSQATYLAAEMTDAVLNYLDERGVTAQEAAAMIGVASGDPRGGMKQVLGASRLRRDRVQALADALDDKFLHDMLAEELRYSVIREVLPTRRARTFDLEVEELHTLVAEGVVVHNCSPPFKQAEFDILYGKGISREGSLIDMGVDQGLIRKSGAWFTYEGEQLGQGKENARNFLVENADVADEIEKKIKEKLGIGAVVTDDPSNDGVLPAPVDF

Nonstructural protein 1 = Nonstructural protein 1 (Influenza A virus, UniProt Q194T2); format: functional, Influenza A virus (A/California/07/2009(H1N1))
Sequence of Nonstructural protein 1 (Q194T2 whole entry): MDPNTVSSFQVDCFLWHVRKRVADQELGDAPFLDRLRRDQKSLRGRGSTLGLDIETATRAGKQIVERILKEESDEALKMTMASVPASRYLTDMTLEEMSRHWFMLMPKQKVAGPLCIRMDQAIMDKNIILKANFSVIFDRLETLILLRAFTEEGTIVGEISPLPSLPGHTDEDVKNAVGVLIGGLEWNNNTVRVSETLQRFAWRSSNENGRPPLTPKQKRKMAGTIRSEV

[16] = biological target: Heat shock protein HSP 90-alpha (Homo sapiens, UniProt P07900); format: functional, organism-based

COc1cc2cc(C(N)=O)c(N)nc2cc1OC
EC50 [1]: 40 µM (active)
EC50 [2]: > 112 µM (not active)

Cc1ccc2c(CN3CCN(Cc4ccccc4)CC3)cc(=O)oc2c1C
EC50 [3]: > 60 µM (not active)
EC50 (cells [4]): 0.065 µM (active)
EC50 [5]: < 0.1 µM (active)

CC(C)CC(=O)n1sc(NC(=O)c2ccccc2)nc1=O
IC50 (Leucine aminopeptidase): 43.9 µM (active)

CCN(CC)CCN(C(=O)C1CCCCC1)c1nc2cc3c(cc2s1)OCO3
EC50 [3]: > 60 µM (not active)
EC50 (cells [4]): 0.514 µM (active)
EC50 [5]: < 0.1 µM (active)

CCc1ccc2oc(=O)cc(CN3CCN(Cc4ccccc4)CC3)c2c1
EC50 [3]: > 60 µM (not active)
EC50 (cells [4]): 0.127 µM (active)
EC50 [5]: < 0.1 µM (active)

Cc1ccsc1/C=N/n1c(S)nnc1-c1cccnc1
IC50 (Large T antigen): 30.3 µM (active)
IC50 [6]: > 64 µM (inactive)

Cn1nc(C(=O)OCC(=O)Nc2sccc2C(N)=O)c2ccccc2c1=O
EC50 [1]: > 112 µM (not active)
EC50 [2]: > 112 µM (not active)

CCc1ccc(C2=NN(c3ccc(S(N)(=O)=O)cc3)C(c3ccc(F)cc3)C2)cc1 (stereo not given)
EC50 [7]: 16.6 µM (active)
EC50 [8]: 17.9 µM (active)
CC50 [9]: 27.6 µM (active)

O=C1CC(N2CCc3ccccc32)C(=O)N1c1ccccc1 (stereo not given)
AC50 [10]: 0.677 µM (active)

CCCN1CCC(=NNC(=O)c2ccc(Br)o2)CC1
IC50 [6]: > 64 µM (inactive)

CCCCN(CCCNC(=O)C1CCN(S(=O)(=O)CC)CC1)c1ccccc1
EC50 [11]: > 260 µM (inactive)
AC50 [10]: 0.131 µM (active)

Cc1cc2nc(N/C(N)=N/C(=O)C(C)C)nc(C)c2cc1C
IC50 (cells [12]): 20.3 µM (active)
EC50 (Streptococcus): > 150 µM (not active)
CC50 [13]: 17 µM (active)
EC50 [14]: > 150 µM (not active)
CC50 [9]: > 40 µM (active)

CCOC(=O)c1nc(O)c2c3c(sc2n1)CCCC3
EC50 [1]: > 112 µM (not active)

CC1=C(C(=O)OCc2ccccc2)C(c2ccc(Cl)cc2Cl)NC(=O)N1CCCCCC(=O)O (stereo not given)
IC50 (Leucine aminopeptidase): 20.4 µM (active)

CCN(CC)CCNS(=O)(=O)c1ccc(C(=O)NN)cc1
AC50 [10]: 3.39 µM (active)

COc1ccc(N2CC(C(=O)NCc3ccccc3)CC2=O)cc1 (stereo not given)
EC50 [1]: > 112 µM (not active)
EC50 [2]: > 112 µM (not active)

CCOC(=O)c1nc2sc3c(c2c(=O)[nH]1)CCCC3
EC50 [2]: > 112 µM (not active)

O=C(CCl)Nc1sccc1C(=O)c1ccccc1
CC50 [9]: 18.1 µM (active)
AC50 [15]: 4.8 µM (active)
EC50 (Protein RecA): 4.78 µM (active)

Fc1ccc(C2CC(c3ccccc3)n3ncnc3N2)cc1 (stereo not given)
EC50 [1]: > 112 µM (not active)
EC50 [2]: > 112 µM (not active)

CC(C)COc1ccc(C(=O)Nc2ccc(NC(=O)c3ccco3)c(Cl)c2)cc1
EC50 [1]: > 112 µM (not active)
EC50 [2]: > 112 µM (not active)

O=C(CSc1nc[nH]n1)Nc1ccc(S(=O)(=O)N2CCCC2)cc1
IC50 (Leucine aminopeptidase): 82.5 µM (active)

Cc1ccc(C(=O)c2c(NC(=O)c3ccncc3)sc3c2CCCC3)cc1
EC50 [3]: > 60 µM (not active)
EC50 (cells [4]): 0.266 µM (active)
EC50 [5]: < 0.1 µM (active)

Cc1[nH]c(=O)c(C#N)cc1-c1ccncc1 [MILRINONE]
EC50 [1]: 0.634 µM (active)
EC50 [2]: > 112 µM (not active)

COc1ccc(Nc2ccc(S(=O)(=O)N3CCCCCC3)cc2[N+](=O)[O-])cc1
IC50 (Nonstructural protein 1): 45.6 µM (active)

COc1cc(C=NO)nc(-c2ccccn2)c1
AC50 [16]: 3.2 µM (active)
IC50 (Nonstructural protein 1): 2.51 µM (active)
